The values below come from ChEMBL document CHEMBL4414546, “Identification of Narciclasine as an in Vitro Anti-Inflammatory Component of Cyrtanthus contractus by Correlation-Based Metabolomics” (2019).

The structures appear in SMILES notation. Active and inactive are the calls of the source. The calls are words filed in the database; no cut-off is given here.

For test [1], the system named is HUVEC. Kind of test: Antiinflammatory activity in HUVEC assessed as reduction in TNF-alpha-induced E-selectin expression at 7.2 nM preincubated for 30 mins followed by TNF-alpha stimulation and measured after 30 mins by immunoblotting analysis. It counts as functional, cell-based. Conditions: Homo sapiens.
The test system of test [2] is HUVEC. Kind of test: Antiinflammatory activity in HUVEC assessed as reduction in TNF-alpha-induced ICAM1 cell surface expression at 7.2 nM preincubated for 30 mins followed by TNF-alpha stimulation and measured after 24 hrs by flow cytometry. Type of test: functional, cell-based. Conditions: Homo sapiens.
For test [3], the system named is HUVEC. Kind of test: Antiinflammatory activity in TNF-alpha-induced HUVEC assessed as fold change in COX2 expression at 7.2 nM preincubated for 30 mins followed by addition and measured after 30 mins by immunoblotting analysis (reference value: 0.50). It counts as functional, Homo sapiens. (Immunoblotting shows a protein as a band on a membrane.)
Test [4] relates to HUVEC. Kind of test: Effect on TNF-alpha-induced NFkappaB nuclear translocation in HUVEC at 7.2 nM preincubated for 30 mins followed by TNF-alpha stimulation and measured after 30 mins by fluorescence microscopic analysis. Type of test: cell-based. Conditions: Homo sapiens.
In test [5] the test system is HUVEC. Briefly: Antiinflammatory activity in HUVEC assessed as reduction in TNF-alpha-induced E-selectin cell surface expression at 7.2 nM preincubated for 30 mins followed by TNF-alpha addition and measured after 4 hrs by ELISA. It counts as functional, cell-based. As to conditions: Homo sapiens. On the technique in general: In an ELISA, binding on a coated surface is turned into a signal by an enzyme label.

For test [6], the system named is HUVEC. Briefly: Antiinflammatory activity in TNF-alpha-induced HUVEC assessed as fold change in IkappaBalpha expression at 7.2 nM preincubated for 30 mins followed by addition and measured after 30 mins by immunoblotting analysis (reference value: 0.50). It counts as functional, Homo sapiens.

Consider `O=C1N[C@@H]2C(=C[C@H](O)[C@@H](O)[C@H]2O)c2cc3c(c(O)c21)OCO3` [NARCICLASINE], for which the inhibition result with HUVEC [1], in the test with HUVEC [2] and with HUVEC [5] was “Active” in each case. For the same compound, the “fold change (FC)” value in the test on HUVEC [3] is given as 0.8; with HUVEC [6], 0.31. Besides, the result in the test on HUVEC [4] was inactive.
